# Where a name gives a salt, the structure may show the parent alone.
# Target: T1, human recombinant ENPP1 (Homo sapiens, UniProt P22413)
# T1 construct: purchased R & D systems
# T1 sequence (P22413 1-925): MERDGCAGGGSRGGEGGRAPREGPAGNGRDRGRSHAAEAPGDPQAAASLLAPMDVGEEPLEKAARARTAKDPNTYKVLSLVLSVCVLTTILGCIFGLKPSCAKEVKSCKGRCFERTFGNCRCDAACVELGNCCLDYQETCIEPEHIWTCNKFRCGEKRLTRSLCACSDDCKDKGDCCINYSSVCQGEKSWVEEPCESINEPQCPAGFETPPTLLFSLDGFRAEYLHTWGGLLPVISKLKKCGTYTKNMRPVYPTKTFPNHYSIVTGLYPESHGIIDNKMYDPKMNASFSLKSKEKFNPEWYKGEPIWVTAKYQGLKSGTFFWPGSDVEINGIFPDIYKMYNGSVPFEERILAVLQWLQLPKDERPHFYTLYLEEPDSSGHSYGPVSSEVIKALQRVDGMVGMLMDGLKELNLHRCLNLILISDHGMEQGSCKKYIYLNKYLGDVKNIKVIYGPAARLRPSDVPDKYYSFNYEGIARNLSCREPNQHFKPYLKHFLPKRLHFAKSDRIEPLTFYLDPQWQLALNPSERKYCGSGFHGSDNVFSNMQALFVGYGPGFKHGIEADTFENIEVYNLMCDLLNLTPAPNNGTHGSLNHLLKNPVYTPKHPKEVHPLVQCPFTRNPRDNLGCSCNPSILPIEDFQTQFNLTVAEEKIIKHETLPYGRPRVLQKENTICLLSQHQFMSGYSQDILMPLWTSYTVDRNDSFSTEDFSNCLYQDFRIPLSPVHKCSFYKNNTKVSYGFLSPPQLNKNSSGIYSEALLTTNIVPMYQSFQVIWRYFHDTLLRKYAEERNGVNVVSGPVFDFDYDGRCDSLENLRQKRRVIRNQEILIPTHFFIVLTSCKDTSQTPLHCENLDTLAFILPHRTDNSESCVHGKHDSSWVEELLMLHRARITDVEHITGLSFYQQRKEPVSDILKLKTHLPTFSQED
# Experiment: ENPP1 enzyme assay with cGAMP substrate (AMP-Glo luminescence)
# Format: biochemical
# Details: human recombinant ENPP1 3 ng/reaction, cGAMP 5 μM, 37° C. 90 minutes, read-out: Enzymatic activity (ENPP1 IC50)
# Protocol: ENPP1 hydrolyzes nucleotides or nucleotide derivatives to produce nucleoside -5′-monophosphate and pyrophosphate. in addition, ENPP1 hydrolyzes 2′,3′-cGAMP to produce 5′-adenosine monophosphate (AMP) and 5′-guanosine monophosphate (GMP). AMP produced from the reaction is measured using the AMP-Glo® kit (Promega). The AMP-Glo® kit contains two reagents. The first reagent terminates the AMP-producing enzymatic reaction, removes ATP and converts the produced AMP into ADP. The second reagent converts ADP to ATP which is used to generate luminescence in the luciferase reaction. The amount of luminescence measured is proportional to the amount of AMP produced by ENPP1.
# The final reaction mixture contains 50 mM Tris (pH 8.5) buffer, 250 mM NaCl, 0.5 mM. CaCl2, 1 μM ZnCl2, 5% glycerol and 1% DMSO. […] The reaction was initiated by addition of cGAMP (at a final concentration of 5 μM) and reacted at 37° C. for 90 minutes. At the end of the reaction, 10 μl of the AMP-Glo first reagent was added to stop the reaction and the result was stored at room temperature for […]. After storage, 20 μl of an AMP detection solution (a mixture of AMP-Glo II reagent and Kinase-Gio at a ratio of 1:100) was added and stored at room. temperature for 1 hour. Luminescence signals were measured using a Victor® plate reader (Perkin Elmer). The maximal activity control (containing enzymes and substrates only in the presence of 1% DMSO; MAX) and the minimal activity control (containing substrates and 1% DMSO; MIN) were evaluated simultaneously. In each experiment, serially diluted reference ENPP1 inhibitors were tested together. IC50, indicating % residual activity versus compound concentration was determined by fitting inhibition curves using the 3-parameter analysis of GraphPad Prism® software. Serially diluted samples of one compound were tested two or more times and an average IC50 of each compound was calculated.
row,SMILES,IC50 [µM]
1,"COc1ccc2c(-c3ccc(CN)cc3)n[nH]c(=O)c2c1 [Compound No. 47, 4-(4-(aminomethyl)-phenyl)-7-methoxyphthalazin-1(2H)-one hydrochloride]",< 1
2,"COc1cc2c(-c3ccc(CN)cc3)n[nH]c(=O)c2cc1OC [Compound No. 48, 4-(4-(aminomethyl)phenyl)-6,7-dimethoxyphthalazin-1(2H)-one hydrochloride]",< 1
3,"COc1cc2c(-c3ccc(CN)cc3)nn(C)c(=O)c2cc1OC [Compound No. 49, 4-(4-(aminomethyl)phenyl)-6,7-dimethoxy-2-methylphthalazin-1(2H)-one hydrochloride]",< 1
4,"C[C@@H](N)c1ccc(-c2n[nH]c(=O)c3ccccc23)cc1 [Compound No. 51, (R)-4-(4-(1-aminoethyl)phenyl)phthalazin-1(2H)-one hydrochloride]",< 1
5,"CC(C)(N)c1ccc(-c2n[nH]c(=O)c3ccccc23)cc1 [Compound No. 52, 4-(4-(2-aminopropan-2-yl)phenyl)phthalazin-1(2H)-one hydrochloride]",1 to 10
6,"NCc1ccc(-c2n[nH]c(=O)c3ccccc23)cc1C(F)(F)F [Compound No. 53, 4-(4-(aminomethyl)-3-(trifluoromethyl)phenyl)phthalazin-1(2H)-one hydrochloride]",< 1
7,"O=c1[nH]nc(-c2ccc3c(c2)CCNC3)c2ccccc12 [Compound No. 55, 4-(1,2,3,4-tetrahydroisoquinolin-6-yl)phthalazin-1(2H)-one hydrochloride]",< 1
8,"Cn1nc(-c2ccc3c(c2)CCNC3)c2ccccc2c1=O [Compound No. 56, 2-methyl-4-(1,2,3,4-tetrahydroisoquinolin-6-yl)phthalazin-1(2H)-one hydrochloride]",1 to 10
9,"COc1cc2c(-c3ccc4c(c3)CCNC4)n[nH]c(=O)c2cc1OC [Compound No. 57, 6,7-dimethoxy-4-(1,2,3,4-tetrahydroisoquinolin-6-yl)phthalazin-1(2H)-one hydrochloride]",1 to 10
10,"COc1cc2c(-c3ccc4c(c3)CCNC4)nn(C)c(=O)c2cc1OC [Compound No. 58, 6,7-dimethoxy-2-methyl-4-(1,2,3,4-tetrahydroisoquinolin-6-yl)phthalazin-1(2H)-one hydrochloride]",1 to 10
11,"COc1cc2c(-c3ccc4c(c3)CNCC4)n[nH]c(=O)c2cc1OC [Compound No. 59, 6,7-dimethoxy-4-(1,2,3,4-tetrahydroisoquinolin-7-yl) phthalazin-1(2H)-one]",> 10
12,"CC(C)(C)OC(=O)NS(=O)(=O)Nc1cccc(-c2n[nH]c(=O)c3ccccc23)c1 [Compound No. 60, tert-butyl (N-(3-(4-oxo-3,4-dihydrophthalazin-1-yl)phenyl)sulfamoyl)carbamate]",> 10
13,"Cn1nc(-c2cccc(NS(=O)(=O)NC(=O)OC(C)(C)C)c2)c2ccccc2c1=O [Compound No. 61, tert-butyl (N-(3-(3-methyl-4-oxo-3,4-dihydrophthalazin-1-yl)phenyl)sulfamoyl)carbamate]",> 10
14,"CC(C)(C)OC(=O)NS(=O)(=O)Nc1cccc(-c2nn(Cc3ccccc3)c(=O)c3ccccc23)c1 [Compound No. 62, tert-butyl (N-(3-(3-benzyl-4-oxo-3,4-dihydrophthalazin-1-yl)phenyl)sulfamoyl)carbamate]",> 10
15,"Cn1nc(-c2cccc(CNS(=O)(=O)NC(=O)OC(C)(C)C)c2)c2ccccc2c1=O [Compound No. 64, tert-butyl N-(3-(3-methyl-4-oxo-3,4-dihydrophthalazin-1-yl)benzyl)sulfamoyl carbamate]",> 10

# The next lines start with the values.
row,IC50 [µM],SMILES
1,> 10,"Cn1nc(-c2ccc(CNS(=O)(=O)NC(=O)OC(C)(C)C)cc2)c2ccccc2c1=O [Compound No. 66, tert-butyl (N-(4-(3-methyl-4-oxo-3,4-dihydrophthalazin-1-yl)benzyl)sulfamoyl)carbamate]"
2,> 10,"CCn1nc(-c2ccc(CNS(=O)(=O)NC(=O)OC(C)(C)C)cc2)c2ccccc2c1=O [Compound No. 67, tert-butyl (N-(4-(3-ethyl-4-oxo-3,4-dihydrophthalazin-1-yl)benzyl)sulfamoyl)carbamate]"
3,> 10,"CC(C)(C)OC(=O)NS(=O)(=O)NCc1ccc(-c2nn(-c3ccccc3)c(=O)c3ccccc23)cc1 [Compound No. 69, tert-butyl (N-(4-(4-oxo-3-phenyl-3,4-dihydrophthalazin-1-yl)benzyl)sulfamoyl)carbamate]"
4,> 10,CC(C)(C)OC(=O)NS(=O)(=O)NCc1ccc(-c2nn(Cc3ccccc3)c(=O)c3ccccc23)cc1 [Compound No. 70]
5,> 10,"CC(C)(C)OC(=O)NS(=O)(=O)NCc1ccc(-c2nn(Cc3ccc(F)cc3)c(=O)c3ccccc23)cc1 [Compound No. 71, tert-butyl (N-(4-(3-(4-fluorobenzyl)-4-oxo-3,4-dihydrophthalazin-1-yl)benzyl)sulfamoyl)carbamate]"
6,> 10,COc1ccc2c(=O)[nH]nc(-c3ccc(CNS(=O)(=O)NC(=O)OC(C)(C)C)cc3)c2c1 [Compound No. 72]
7,> 10,"COc1ccc2c(=O)n(C)nc(-c3ccc(CNS(=O)(=O)NC(=O)OC(C)(C)C)cc3)c2c1 [Compound No. 73, tert-butyl N-(4-(7-methoxy-3-methyl-4-oxo-3,4-dihydrophthalazin-1-yl)benzyl)sulfamoyl carbamate]"
8,1 to 10,"COc1cc2c(-c3ccc(CNS(=O)(=O)NC(=O)OC(C)(C)C)cc3)n[nH]c(=O)c2cc1OC [Compound No. 76, tert-butyl (N-(4-(6,7-dimethoxy-4-oxo-3,4-dihydrophthalazin-1-yl)benzyl)sulfamoyl)carbamate]"
9,1 to 10,"COc1cc2c(-c3ccc(CNS(=O)(=O)NC(=O)OC(C)(C)C)cc3)nn(C)c(=O)c2cc1OC [Compound No. 77, tert-butyl (N-(4-(6,7-dimethoxy-3-methyl-4-oxo-3,4-dihydrophthalazin-1-yl)benzyl)sulfamoyl)carbamate]"
10,> 10,"CC(C)(C)OC(=O)NS(=O)(=O)NCc1ccc(-c2n[nH]c(=O)c3ccccc23)cc1C(F)(F)F [Compound No. 81, tert-butyl N-(4-(4-oxo-3,4-dihydrophthalazin-1-yl)-2-(trifluoromethyl)benzyl)sulfamoyl carbamate]"
11,> 10,"CC(C)(C)OC(=O)NS(=O)(=O)N1CCc2cc(-c3n[nH]c(=O)c4ccccc34)ccc2C1 [Compound No. 83, tert-butyl ((6-(4-oxo-3,4-dihydrophthalazin-1-yl)-3,4-dihydroisoquinolin-2(1H)-yl)sulfonyl)carbamate]"
12,> 10,"Cn1nc(-c2ccc3c(c2)CCN(S(=O)(=O)NC(=O)OC(C)(C)C)C3)c2ccccc2c1=O [Compound No. 84, tert-butyl ((6-(3-methyl-4-oxo-3,4-dihydrophthalazin-1-yl)-3,4-dihydroisoquinolin-2(1H)-yl)sulfonyl)carbamate]"
13,> 10,"COc1cc2c(-c3ccc4c(c3)CCN(S(=O)(=O)NC(=O)OC(C)(C)C)C4)n[nH]c(=O)c2cc1OC [Compound No. 85, tert-butyl ((6-(6,7-dimethoxy-4-oxo-3,4-dihydrophthalazin-1-yl)-3,4-dihydroisoquinolin-2(1H)-yl)sulfonyl)carbamate]"
14,< 1,"Cn1nc(-c2cccc(NS(N)(=O)=O)c2)c2ccccc2c1=O [Compound No. 88, N-(3-(3-methyl-4-oxo-3,4-dihydrophthalazin-1-yl)phenyl)sulfamide hydrochloride]"
